“Also recorded” adds a separate entry of the source.
Assays:
human mononuclear cells = test: TNFα production in human mononuclear cells (MNC) stimulated by LP, LTA or PGN, and its inhibition by SALP; assay type: cell-based
Description: The stimulation of MNC was performed as described previously. Briefly, MNC were isolated from heparinized blood of healthy donors by the Hypaque-Ficoll density gradient method. The cell number was equilibrated at 5 × 10^6 cells/ml RPMI 1640 containing 2 mM L-glutamine, 100 U/ml penicillin and 100 μg/ml streptomycin. For stimulation, 200 μl/well MNC were transferred into 96-well culture plates. The stimuli were serially diluted in RPMI 1640 and added to the cultures at 20 μl per well. The cultures were incubated for 4 h at 37 °C under 5% CO2. Cell-free supernatants were collected after centrifugation of the culture plates for 10 min at 400 × g and stored at −20 °C until the determination of the cytokine content. Immunological determination of TNFα in the cell supernatant was performed in a sandwich-ELISA as described earlier (OptEIA; BD, Heidelberg, Germany). TNFα was determined and measured following manufacturer’s instructions and results are the average of two assays.
LP preparations were pre-warmed for 30 min at 37 °C, and added to the cultures at 20 μl per well. In inhibition experiments, different SALP were added directly after LPS/LP/LTA administration.
Since the data of the stimulation of human MNC by the bacterial and synthetic LP was taken over a time period of more than 6 years, the TNFα production lead to considerable variations due to different batches of LP and of Pep19-2.5, and in particular due to variations resulting from blood samples of different donors. Because the main emphasis laid here is the efficiency of the peptide to inhibit the cytokine production, most figures describe the inhibition efficieny of the peptide in %, by presenting the means ± SEM of at least 3 independent experiments. The absolute values of the cytokine production, where of note, is given separately in the text.

FSL-1 aggregates = test: FRET intercalation of peptide into FSL-1 aggregates; assay type: binding
Description: The ability of selected peptides to intercalate into LP aggregates was investigated exemplarily for FSL-1 and for LP SitC by FRET as described earlier. Briefly, the LP samples were doubly labelled with the fluorescent phospholipid dyes N-(7-nitrobenz-2-oxa-1,3-diazol-4-yl)-phosphatidyl ethanolamine (NBD-PE) and N-(lissamine rhodamine B sulfonyl)-phosphatidylethanolamine (Rh-PE) (Molecular Probes, Life Technologies). Intercalation of unlabeled molecules into the doubly labeled liposomes leads to probe dilution and to a lower FRET efficiency: Therefore, the emission intensity of the donor ID increases and that of the acceptor IA decreases (for the sake of clarity, only the quotient of the donor and acceptor emission intensity will be shown here).
In all the experiments, the peptides (100 μl of a 100 μM Hepes solution) were added to doubly labelled LP (900 μl of a 10 μM solution) at 50 s after equilibration. NBD-PE was excited at 470 nm and the donor and acceptor fluorescence intensities were monitored at 531 and 593 nm, respectively, and the fluorescence signal ID/IA was recorded for further 250 s. The measurement was repeated twice.

Balb/C mice = test: Serum cytokine response in mice after intraperitoneal inoculation; assay type: in vivo, mouse; conditions: 400 μg peptide i.p. immediately after 40 μg FSL-1, different site, n = 5
Description: Seven-week-old female SPF-free Balb/C mice of 20 g of body weight, approximately, were purchased from Harlan Spain (Harlan Interfauna Iberica S.A., Barcelona, Spain) and randomly distributed in experimental groups (at least 4 animals per group except for the determination of lethal dose (n = 3)). Sample size was calculated based on previous results with the same animal model. Animals were housed in individually ventilated cages (5 mice per cage) bedded with hardwood bedding. Mice were provided ad libitum access to feed and water and lighting was adjusted to a 14-hour light/10-hour dark cycle. During the experiments, the condition of the animals was monitored daily every 4 hours and animals displaying persistent motor ataxia and hunched posture were euthanized.
To study if FSL-1 had pro-inflammatory cytokine-inducing activity, animals were intraperitoneally inoculated with 40 μg of FSL-1 resuspended in 200 μl of pyrogen-free saline. Blood samples were taken both at 1.5 h or 4 h after FSL-1 challenge to measure TNFα and IL-6 levels. For this purpose, mice were anesthetised, a blood sample was obtained by the retroorbital plexus and serum cytokine levels were measured using Quantikine Immunoassays kits (R&D systems, Minneapolis, USA) following manufacturer’s instructions. Differences between groups were statistically analyzed using the Mann-Whitney U test.
To evaluate the ability of Aspidasept® to neutralize the FSL-1 induced pro-inflammatory cytokines, a group of animals received by the intraperitoneal route first 40 μg of FSL-1 and then 400 μg of the drug resuspended in 100 μl of pyrogen-free saline. This second injection was administered immediately after FSL-1 challenge at a different site of the peritoneum. TNFα and IL-6 levels were measured (see above) at 1.5 h or 4 h after challenge, respectively, coinciding with the peak of cytokine secretion, as determined in preliminary experiments.

FSL-1 = test: Isothermal titration calorimetry of peptide into FSL-1; assay type: binding; conditions: LP 0.05 mM, peptide 1 mM titrated in 3 μl portions every 5 min, 37 °C
Description: Microcalorimetric measurements of peptide binding to selected LP, i.e., Pam3CSK4 and FSL-1 were performed on a MCS isothermal titration calorimeter (Microcal, Freiburg, Germany) at 37 °C, as previously described. The LP containing solutions (0.05 mM, prepared as described above) were dispensed into the microcalorimetric cell (volume 1.5 ml), and the peptide solutions (1 mM) were loaded into the syringe compartment (volume 0.1 ml). After temperature equilibration, the peptide was titrated in 3 μl aliquots every 5 min into the LP-containing cell under constant stirring and the heat of interaction after each injection measured by the MCS instrument was plotted versus time.

For “GCKKYRRFRWKFKGKFWFWG [Aspidasept®, synthetic anti-LPS peptide (SALP), 20′mer, anti-septic therapeutic drug candidate]”, the “inhibition of TNFα induction by LP, LTA and PGN” value (human mononuclear cells; 10:1 excess weight ratio of the peptide) was “takes place in most cases”, the “cytokine expression induced by LP, LTA and PGN in presence of peptide” value (human mononuclear cells; 100:1 weight ratio of the peptide) was “no longer any detectable cytokine expression” and the “reduction of FSL-1-induced TNFα secretion” value (human mononuclear cells; stimulus FSL-1 100 and 10 ng/ml, 10-fold (10:1 weight%) excess of peptide) was “considerable reduction; also recorded: good degree of inhibition”. For the same sequence, the “reduction of FSL-1-induced TNFα secretion” value (human mononuclear cells; stimulus FSL-1, 100:1 excess of peptide) was “nearly completely abolished”, the “inhibition of LP dependent TNFα production” value (human mononuclear cells; stimulus LP OspA and OspC, 10000 and 1000 ng/ml, peptide:LP ratio 10:1) was “inhibited” and the “LP dependent TNFα production in presence of peptide” value (human mononuclear cells; stimulus LP OspA and OspC, peptide:LP 100:1 concentration ratio, data not shown) was “undetectable levels”. For the same sequence, the “reduction of LTA-dependent TNFα response” value (human mononuclear cells; stimulus LTA from S. aureus SA113Δlgt, 10000 and 1000 ng/ml, 10-fold excess of peptide) was “effectively reduced”, the “inhibition of pro-inflammatory activity of MALP-2” value (human mononuclear cells; stimulus MALP-2, 100:1 weight% excess of the peptide, data not shown) was “nearly complete inhibition” and the “inhibition of PGN-induced TNFα response” value (human mononuclear cells; stimulus PGN from S. aureus SA113Δlgt, 10000 and 1000 ng/ml, 10-fold excess of peptide) was “totally inhibited”. The “inhibition of Pam3CSK4-induced cytokine (TNFα) production” value (human mononuclear cells; stimulus Pam3CSK4 1000, 100, 10 ng/ml, [LP]:[Pep] up to 1:100 weight%) was “only a minor inhibitory effect; also recorded: no significant influence; also recorded: no or only a small inhibition”, the “inhibition of LTA-induced TNFα” value (human mononuclear cells; stimulus commercial LTA from B. subtilis, 10:1 weight% excess of peptide) was “complete inhibition” and the “inhibition of LTA-induced cytokine” value (human mononuclear cells; stimulus commercial LTA from S. aureus, data not shown) was “inhibited”. The “FRET: intercalation on increase in peptide concentration” value (FSL-1 aggregates; FSL-1:Pep19-2.5 1:1 M/M vs 1:0.1 M/M) was “did not lead to a further increase in intercalation”, the “FRET: incorporation into the LP aggregate” value (FSL-1 aggregates; [LP]:[Aspidasept] 1:0.1 molar, peptide added after 50 s, ID/IA signal) was “instantaneous incorporation” and the “inhibition of FSL-1 induced TNFα stimulation in mice” value (Balb/C mice; 1.5 h, p < 0.01) was “totally inhibited”. The “reduction of FSL-1 induced IL-6 levels in mice” value (Balb/C mice; 4 h) was “slight reduction” and the “ITC: FSL-1:peptide interaction” value (FSL-1) was “exothermic reaction with saturation kinetics; also recorded: considerable reaction with saturation characteristics”.

— paper PMC4585737, “Lipoproteins/peptides are sepsis-inducing toxins from bacteria that can be neutralized by synthetic anti-endotoxin peptides” (Scientific Reports, 2015)
